In general, IC50 refers to the point on the concentration scale where inhibition reaches its midpoint. As a reminder, the EC50 is the concentration needed to bring the measured effect to its halfway point.

Assay [1] concerns T1, cb1a cell KARs (kainate receptors of cb1a Off bipolar cells).
T1 construct: gene GRIK1
The note with it: desensitization by glutamate; supplement only.

In assay [2] the test system is T2, cone glutamate transporter (TBOA-sensitive; EAAT5 immunolabelled at cone terminal).
T2 construct: gene SLC1A7
The note with it: read-out: steady state EC50.

In assay [3] the test system is T1, cb1a cell KARs (kainate receptors of cb1a Off bipolar cells). The note with it: mean of n = 6 somas (Hill n 1.11); 35 µM GYKI 53655 blocks AMPA receptors; pH 7.4; 32-33 °C.

As for `N[C@@H](CCC(=O)O)C(=O)O` [glutamate], the IC50 in assay [1] is 30.4 ± 10.2 µM. In addition, the EC50 in assay [2] came out at 0.71 µM; in assay [3] it was 1400 ± 160 µM.

For the origin of these results see paper PMC10276006, “Mechanisms of simultaneous linear and nonlinear computations at the mammalian cone photoreceptor synapse” (Nature Communications, 2023).
